From patent US11591365B2, “BCL9 peptides and variants thereof” (WntRx Pharmaceuticals Inc., priority 2017, dated 2023)
pIC50: −log10 of the molar value. Where a SMILES comes first, the peptide text is derived from it. Bridges are numbered along the chain shown (N, C = ends). [ ]: non-standard residue; d: D form. 2Nal = N[C@@H](Cc1ccc2ccccc2c1)C(=O)O; NMeR = CN[C@@H](CCCNC(=N)N)C(=O)O; Ala(cPr) = N[C@@H](CC1CC1)C(=O)O; hArg = N=C(N)NCCCC[C@H](N)C(=O)O; NMeQ = CN[C@@H](CCC(N)=O)C(=O)O; Cha = N[C@@H](CC1CCCCC1)C(=O)O; Cba = N[C@@H](CC1CCC1)C(=O)O; S5 = C=CCCC[C@](C)(N)C(=O)O; Ac4c = NC1(C(=O)O)CCC1

What was measured:
Colo320DM = Colo320DM cell viability; assay type: cell-based, human
Text: In some embodiments, a polypeptide described herein inhibits binding of BLC9 to β-catenin when assessed in a cell-viability assay. In some embodiments, the cell-viability assay is a CellTiterGlo luminescent assay, wherein the viability of cells is quantitatively measured. Various cell lines, transformed cell lines or primary cells derived from a healthy subject or subject suffering from a disease can be used in this assay.

LEF-TCF-bla HCT116 cells = assay: Wnt reporter assay: Wnt/Beta-Catenin-LEF-TCF-bla HCT116 inhibitor screen, constitutively activated; assay type: cell-based; conditions: 5 hours incubation with compound
Text: In various embodiments, a polypeptide described herein inhibits binding of BCL9 to β-catenin when assessed in a Wnt transcription assay. In some embodiments, the Wnt transcription assay is a cell-based assay. In some embodiments, the cell-based Wnt transcription assay is a GeneBLAzer® beta-lactamase (bla) reporter assay. Various cell lines, transformed cell lines or primary cells derived from a healthy subject or subject suffering from a disease can be used in this assay. A cell line known to be dependent on canonical Wnt/β-catenin signaling for its survival may also be used. In some embodiments, CellSensor™ LEF/TCF-bla HCT-116 cells are used in this reporter assay. These cells contain a beta-lactamase (BLA) reporter gene under the control of a 0-catenin/LEF/TCF response element stably integrated into HCT-116 cells. As the cells constitutively express beta-lactamase, adding a polypeptide that inhibits binding of BCL9 to β-catenin in this assay leads to reduced production of beta-lactamase. The efficiency of the polypeptide in suppressing Wnt transcription can therefore be quantitatively calculated in this assay. In some embodiments, a polypeptide described herein suppresses the Wnt transcription as measured in a GeneBLAzer® beta-lactamase (bla) reporter assay, which is indicative of the ability of the polypeptide to inhibit binding of BCL9 to β-catenin.
Wnt/Beta-Catenin-LEF-TCF-bla HCT116-Inhibitor Screen, Constitutively Activated. LEF-TCF-bla HCT116 cells are thawed and prepared as described above for the Activator Screen. 32 μL of cell suspension is added to each well of a 384-well Poly-D-Lysine assay plate. Cells in Assay Media are incubated for 16-24 hours in the plate at 37° C./5% CO2 in a humidified incubator. 4 μL of a 10× serial dilution of ICG-001 (control inhibitor starting concentration, 25,000 nM) or compounds are added to appropriate wells of the plate. 4 μL of Assay Media is added to all wells to bring the final assay volume to 40 μL. The plate is incubated for 5 hours at 37° C./5% CO2 in a humidified incubator. 8 μL of 1 μM Substrate Loading Solution is added to each well and the plate is incubated for 2 hours at room temperature. The plate is read on a fluorescence plate reader.

Compound CC[C@H](C)[C@@H]1NC(=O)[C@@](C)(NC(=O)[C@H](CCCNC(=N)N)NC(=O)[C@H](CC(C)C)NC(=O)[C@@H](NC(=O)[C@H](CCC(N)=O)NC(=O)[C@H](CC(C)C)NC(=O)[C@H](CO)NC(=O)[C@H](CCCNC(=N)N)NC(=O)[C@H](CCC(N)=O)NC(=O)[C@H](CCCNC(=N)N)NC(=O)[C@H](Cc2c[nH]cn2)NC(C)=O)[C@@H](C)O)CCCC=CCCC[C@@](C)(C(=O)N[C@@H](CC2CC2)C(=O)N[C@@H](Cc2ccc3ccccc3c2)C(N)=O)NC(=O)[C@H](CCCNC(=N)N)NC(=O)[C@H](CCC(N)=O)NC1=O [SEQ ID NO: 162, HRQRSLQTLRXIQRX(Cpa)(2-Nal)] (Ac-HRQRSLQTLR[S5]IQR[S5][Ala(cPr)][2Nal]-NH2; staple 11-15) has a pIC50 (Colo320DM) of 5.38 and a pIC50 (LEF-TCF-bla HCT116 cells) of 5.15.

With CC[C@H](C)[C@@H]1NC(=O)[C@@](C)(NC(=O)[C@H](CCCNC(=N)N)NC(=O)[C@H](CC2CCCCC2)NC(=O)[C@@H](NC(=O)[C@H](CCC(N)=O)N(C)C(=O)[C@H](CC(C)C)NC(=O)[C@H](CO)NC(=O)[C@H](CCCNC(=N)N)NC(=O)[C@H](CCC(N)=O)N(C)C(=O)[C@H](CCCNC(=N)N)NC(=O)[C@H](Cc2c[nH]cn2)NC(C)=O)[C@@H](C)O)CCCC=CCCC[C@@](C)(C(=O)N[C@@H](CC2CCC2)C(=O)N[C@@H](Cc2ccc3ccccc3c2)C(N)=O)NC(=O)[C@H](CCCNC(=N)N)NC(=O)[C@H](CCC(N)=O)NC1=O [SEQ ID NO: 163, HR(N-methylQ)RSL(N-methylQ)T(Cha)RXIQRX(CBA)(2-Nal)] (Ac-HR[NMeQ]RSL[NMeQ]T[Cha]R[S5]IQR[S5][Cba][2Nal]-NH2; staple 11-15; N-terminus and C-terminus assumed) the pIC50 (Colo320DM) was 5.62 and the pIC50 (LEF-TCF-bla HCT116 cells) was 5.35.

In the case of CC[C@H](C)[C@@H]1NC(=O)[C@@](C)(NC(=O)[C@H](CCCNC(=N)N)NC(=O)[C@H](CC(C)C)NC(=O)[C@@H](NC(=O)[C@H](CCC(N)=O)N(C)C(=O)[C@H](CC(C)C)NC(=O)[C@H](CO)NC(=O)[C@H](CCCNC(=N)N)NC(=O)[C@H](CCC(N)=O)N(C)C(=O)[C@H](CCCNC(=N)N)NC(=O)[C@H](Cc2c[nH]cn2)NC(C)=O)[C@@H](C)O)CCCC=CCCC[C@@](C)(C(=O)N[C@@H](CC2CCCCC2)C(=O)N[C@@H](Cc2ccc3ccccc3c2)C(N)=O)NC(=O)[C@H](CCCNC(=N)N)NC(=O)[C@H](CCC(N)=O)NC1=O [SEQ ID NO: 181, HR(N-methylQ)RSL(N-methylQ)TLRXIQRX(Cha)(2-Nal)] (Ac-HR[NMeQ]RSL[NMeQ]TLR[S5]IQR[S5][Cha][2Nal]-NH2; staple 11-15), the pIC50 (Colo320DM) was 5.74 and the pIC50 (LEF-TCF-bla HCT116 cells) was 5.35.

CC[C@H](C)[C@@H]1NC(=O)[C@@](C)(NC(=O)[C@H](CCCNC(=N)N)NC(=O)[C@H](CC(C)C)NC(=O)[C@@H](NC(=O)[C@H](CCC(N)=O)NC(=O)[C@H](CC(C)C)NC(=O)[C@H](CO)NC(=O)[C@H](CCCNC(=N)N)NC(=O)[C@H](CCC(N)=O)NC(=O)[C@H](CCCNC(=N)N)NC(=O)[C@H](Cc2c[nH]cn2)NC(C)=O)[C@@H](C)O)CCCC=CCCC[C@@](C)(C(=O)N[C@@H](CC2CCCCC2)C(=O)N[C@@H](Cc2ccc3ccccc3c2)C(N)=O)NC(=O)[C@H](CCCNC(=N)N)NC(=O)[C@H](CCC(N)=O)NC1=O [SEQ ID NO: 180, HRQRSLQTLRXIQRX(Cha)(2-Nal)] (Ac-HRQRSLQTLR[S5]IQR[S5][Cha][2Nal]-NH2; staple 11-15) gave a pIC50 (Colo320DM) of 5.73 and a pIC50 (LEF-TCF-bla HCT116 cells) of 5.66.

Compound CC[C@H](C)[C@@H]1NC(=O)[C@@](C)(NC(=O)[C@H](CCCNC(=N)N)NC(=O)[C@H](CC(C)C)NC(=O)[C@@H](NC(=O)[C@H](CCC(N)=O)N(C)C(=O)[C@H](CC(C)C)NC(C)=O)[C@@H](C)O)CCCC=CCCC[C@@](C)(C(=O)N[C@@H](CC2CCC2)C(=O)N[C@@H](Cc2ccc3ccccc3c2)C(=O)NCCC(=O)NCCC(N)=O)NC(=O)[C@H](CCCNC(=N)N)NC(=O)[C@H](CCC(N)=O)NC1=O (single isomer, unassigned) [SEQ ID NO: 111, L(N-methylQ)TLRXIQRX(CBA)(2-Nal)(β-Ala)(β-Ala)] has a pIC50 (Colo320DM) of 5.51.

CC[C@H](C)[C@@H]1NC(=O)[C@@](C)(NC(=O)[C@H](CCCNC(=N)N)NC(=O)[C@H](CC(C)C)NC(=O)[C@@H](NC(=O)[C@H](CCC(N)=O)NC(=O)[C@H](CC(C)C)NC(=O)[C@H](CO)NC(=O)[C@H](CCCCNC(=N)N)NC(=O)[C@H](CCC(N)=O)NC(=O)[C@H](CCCNC(=N)N)NC(=O)[C@H](Cc2c[nH]cn2)NC(C)=O)[C@@H](C)O)CCCC=CCCC[C@@](C)(C(=O)N[C@@H](CC2CCC2)C(=O)N[C@@H](Cc2ccc3ccccc3c2)C(N)=O)NC(=O)[C@H](CCCNC(=N)N)NC(=O)[C@H](CCC(N)=O)NC1=O [SEQ ID NO: 167, HRQ(homoR)SLQTLRXIQRX(CBA)(2-Nal)] (Ac-HRQ[hArg]SLQTLR[S5]IQR[S5][Cba][2Nal]-NH2; staple 11-15) gave a pIC50 (Colo320DM) of 5.32.

Work on CC[C@H](C)[C@@H]1NC(=O)[C@@](C)(NC(=O)[C@H](CCCNC(=N)N)NC(=O)[C@H](CC(C)C)NC(=O)[C@@H](NC(=O)[C@H](CCC(N)=O)N(C)C(=O)[C@H](CC2CCCCC2)NC(=O)[C@H](CO)NC(=O)[C@H](CCCNC(=N)N)NC(=O)[C@H](CCC(N)=O)NC(=O)[C@H](CCCNC(=N)N)NC(=O)[C@H](Cc2c[nH]cn2)NC(C)=O)[C@@H](C)O)CCCC=CCCC[C@@](C)(C(=O)N[C@@H](CC2CCCCC2)C(=O)N[C@@H](Cc2ccc3ccccc3c2)C(N)=O)NC(=O)[C@H](CCCNC(=N)N)NC(=O)[C@H](CCC(N)=O)NC1=O [SEQ ID NO: 185, HRQRS(Cha)(N-MeGln)TLRXIQRX(Cha)(2-Nal)] (Ac-HRQRS[Cha][NMeQ]TLR[S5]IQR[S5][Cha][2Nal]-NH2; staple 11-15) yielded a pIC50 (Colo320DM) of 5.72.

Work on CC[C@H](C)[C@@H]1NC(=O)[C@@](C)(NC(=O)[C@H](CCCNC(=N)N)NC(=O)[C@H](CC(C)C)NC(=O)[C@@H](NC(=O)[C@H](CCC(N)=O)N(C)C(=O)[C@H](CC(C)C)NC(=O)[C@H](CO)NC(=O)[C@H](CCCNC(=N)N)NC(=O)[C@H](CCC(N)=O)N(C)C(=O)[C@H](CCCNC(=N)N)NC(=O)[C@H](Cc2c[nH]cn2)NC(C)=O)[C@@H](C)O)CCCC=CCCC[C@@](C)(C(=O)N[C@@H](CC2CCC2)C(=O)N[C@@H](Cc2ccc3ccccc3c2)C(N)=O)NC(=O)[C@H](CCCNC(=N)N)NC(=O)[C@H](CCC(N)=O)NC1=O [SEQ ID NO: 155, HR(N-methylQ)RSL(N-methylQ)TLRXIQRX(CBA)(2-Nal)] (Ac-HR[NMeQ]RSL[NMeQ]TLR[S5]IQR[S5][Cba][2Nal]-NH2; staple 11-15) yielded a pIC50 (Colo320DM) of 5.67.

For CC[C@H](C)[C@@H]1NC(=O)[C@@](C)(NC(=O)[C@H](CCCNC(=N)N)NC(=O)[C@H](CC(C)C)NC(=O)[C@@H](NC(=O)[C@H](CCC(=O)O)NC(=O)[C@H](CC(C)C)NC(C)=O)[C@@H](C)O)CCCC=CCCC[C@@](C)(C(=O)N[C@@H](CC2CCC2)C(=O)N[C@@H](Cc2ccc3ccccc3c2)C(N)=O)NC(=O)[C@H](CCCNC(=N)N)NC(=O)[C@H](CCC(N)=O)NC1=O [SEQ ID NO: 109, LETLRXIQRX(CBA)(2-Nal)] (Ac-LETLR[S5]IQR[S5][Cba][2Nal]-NH2; staple 6-10), the pIC50 (Colo320DM) was < 5.30.

With CC[C@H](C)[C@@H]1NC(=O)[C@@](C)(NC(=O)[C@H](CCCNC(=N)N)NC(=O)[C@H](CC(C)C)NC(=O)[C@@H](NC(=O)[C@H](CCC(N)=O)NC(=O)[C@H](CC(C)C)NC(=O)[C@H](CO)NC(=O)[C@H](CCCNC(=N)N)NC(=O)[C@H](CCC(N)=O)NC(=O)[C@H](CCCNC(=N)N)NC(=O)[C@H](Cc2c[nH]cn2)NC(C)=O)[C@@H](C)O)CCCC=CCCC[C@@](C)(C(=O)NC2(C(=O)N[C@@H](Cc3ccc4ccccc4c3)C(N)=O)CCC2)NC(=O)[C@H](CCCNC(=N)N)NC(=O)[C@H](CCC(N)=O)NC1=O [SEQ ID NO: 176, HRQRSLQTLRXIQRX(AC4C)(2-Nal)] (Ac-HRQRSLQTLR[S5]IQR[S5][Ac4c][2Nal]-NH2; staple 11-15) the pIC50 (Colo320DM) was < 5.30.

Compound CC[C@H](C)[C@@H]1NC(=O)[C@@](C)(NC(=O)[C@H](CCCNC(=N)N)N(C)C(=O)[C@H](CC(C)C)NC(=O)[C@@H](NC(=O)[C@H](CCC(N)=O)NC(=O)[C@H](CC(C)C)NC(=O)[C@H](CO)NC(=O)[C@H](CCCNC(=N)N)NC(=O)[C@H](CCC(N)=O)NC(=O)[C@H](CCCNC(=N)N)NC(=O)[C@H](Cc2c[nH]cn2)NC(C)=O)[C@@H](C)O)CCCC=CCCC[C@@](C)(C(=O)N[C@@H](CC2CCCCC2)C(=O)N[C@@H](Cc2ccc3ccccc3c2)C(N)=O)NC(=O)[C@H](CCCNC(=N)N)NC(=O)[C@H](CCC(N)=O)NC1=O [SEQ ID NO: 189, HRQRSLQTL(N-MeArg)XIQRX(Cha)(2-Nal)] (Ac-HRQRSLQTL[NMeR][S5]IQR[S5][Cha][2Nal]-NH2; staple 11-15) has a pIC50 (Colo320DM) of 5.49.
